Experimental data: US20250320206A1, “STAT6 DEGRADERS” (Gilead Sciences, Inc., priority 2024, published 2025)

Target: T1, STAT6 (Homo sapiens, UniProt P42226)
T1 construct: These cells express endogenous STAT6; host or cells: HeLa LgBiT clone 4.14
T1 sequence (P42226 1-847): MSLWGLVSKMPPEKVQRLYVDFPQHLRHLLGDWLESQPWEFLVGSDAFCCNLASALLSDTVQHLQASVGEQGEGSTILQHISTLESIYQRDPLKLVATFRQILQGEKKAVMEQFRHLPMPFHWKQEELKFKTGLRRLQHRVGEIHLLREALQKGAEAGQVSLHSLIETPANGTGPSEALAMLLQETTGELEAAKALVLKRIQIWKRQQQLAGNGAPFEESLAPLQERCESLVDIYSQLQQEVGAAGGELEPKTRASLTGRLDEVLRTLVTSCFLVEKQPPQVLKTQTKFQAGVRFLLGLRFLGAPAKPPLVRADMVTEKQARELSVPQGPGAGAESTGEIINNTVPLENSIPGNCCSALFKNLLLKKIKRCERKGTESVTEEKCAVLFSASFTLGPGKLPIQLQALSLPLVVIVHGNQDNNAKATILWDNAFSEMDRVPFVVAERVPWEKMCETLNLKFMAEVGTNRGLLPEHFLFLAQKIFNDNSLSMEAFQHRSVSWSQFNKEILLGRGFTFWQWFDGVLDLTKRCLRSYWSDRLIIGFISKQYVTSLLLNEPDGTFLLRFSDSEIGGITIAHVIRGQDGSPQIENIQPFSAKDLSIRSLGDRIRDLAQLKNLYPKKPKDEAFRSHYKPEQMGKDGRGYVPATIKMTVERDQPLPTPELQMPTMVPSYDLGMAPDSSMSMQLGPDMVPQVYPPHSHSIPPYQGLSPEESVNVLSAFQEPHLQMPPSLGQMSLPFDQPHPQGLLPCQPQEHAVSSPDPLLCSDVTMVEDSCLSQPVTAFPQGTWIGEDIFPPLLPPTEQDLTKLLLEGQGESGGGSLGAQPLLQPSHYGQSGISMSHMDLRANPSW
Experiment: Stat6 Degrader Assay (HiBiT based, HeLa LgBiT clone 4.14)
Assay type: cell-based
Settings: HeLa LgBiT clone 4.14 HiBiT-STAT6, 4-24 h incubation; values given for compounds with >80% Emax; geometric mean; read-out: STAT6 degradation DC50
How it was run: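 Luminescence from HiBiT-STAT6 complementing stably expressed LgBiT in HeLa clone 4.14 reports remaining STAT6 protein. Cells (5000/well) exposed to compound for 4-24 h at 37° C; read 0.5 h after Nano-Glo addition. 100% degradation window set with 50 μM terfenadine; percent degradation plotted against concentration.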

**Q.** `CNc1ccn(-c2ccnc3c2cc([C@H](C)N2CCC(c4ccc(C(=O)N5CCC(CN6CCN(Cc7ccc8c(c7)C7(CC7)C(=O)N8[C@@H]7CCC(=O)NC7=O)C[C@@H]6C)CC5)cc4)CC2)n3C)c(=O)c1` (single isomer, unassigned) [Example 3u7] was tested. Which DC50 did it give?
**A.** Its DC50 is 0.6 nM.

**Q.** With `Cc1cc(C(=O)N2CCC(CN3CCN(Cc4cc5c(cc4F)n([C@H]4CCC(=O)NC4=O)c(=O)n5C4CC4)C[C@@H]3C)CC2)cc(F)c1C1=CCN([C@@H](C)c2cc3c(-n4ccc5c(c4=O)CCN5)ccnc3n2C)CC1` (single isomer, unassigned) [Example 3u132] as the molecule, how does the DC50 read?
**A.** The DC50 was 0.5 nM.

**Q.** `CNc1ccn(-c2ccnc3c2cc([C@H](C)N2CC=C(c4c(C)cc(C(=O)N5CCC(CN6CCN(Cc7cc8c(cc7F)n(C7CCC(=O)NC7=O)c(=O)n8C)CC6)CC5)cc4F)CC2)n3C)c(=O)c1` (stereo partly drawn) [Example 3u10, 3-(6-fluoro-5-((4-((1-(3-fluoro-5-methyl-4-(1-((S)-1-(1-methyl-4-(4-(methylamino)-2-oxopyridin-1 (2H)-yl)-1H-pyrrolo[2,3-b]pyridin-2-yl)ethyl)-1,2,3,6-tetrahydropyridin-4-yl)benzoyl)-piperidin-4-yl)methyl)piperazin-1-yl)methyl)-3-methyl-2-oxo-2,3-dihydro-1H-benzo[d]imidazol-1-yl)piperidine-2,6-dione] was tested. Which DC50 did it give?
**A.** Its DC50 is 0.6 nM.

Tested on: Eotaxin-3 release in human whole blood stimulated with IL-4
Experiment: Human Whole Blood Eotaxin-3 Assay (IL-4 stimulated eotaxin-3 release)
Assay type: cell-based
Settings: IL-4 stimulation, 48 h, values given for compounds with >80% Emax, geometric mean
Protocol: Human Whole Blood Eotaxin-3 Assay
This was a human whole blood assay using recombinant human Interleukin 4 to stimulate the blood and measuring the ability of the test compounds to inhibit eotaxin-3 release. The biological activities of the test compounds have been tested in human whole blood stimulated with IL-4 measuring Eotaxin-3 release. The test compounds were added to 384 well clear flat-bottom plate in a 4-fold serial dilution in triplicates using a liquid handler. Human whole blood stabilized in lithium-heparin tubes was added in a volume of 65 μL per well, resulting in a final DMSO concentration of 0.5%. The plate is incubated for 2 h at 37° C. under 5% CO2/95% air. Subsequently, 5 μL of recombinant human IL-4 (R&D Systems, cat #204-ILB) was added to the wells to a final concentration of […]. The plate was incubated for 48 h at 37° C. under 5% CO2/95% air. The plate was spun down for 10 minutes at 500×g and 20 μL supernatant was harvested and transferred to a 384 well v-bottom plate using a liquid handler and stored at −20° C. until further analysis. 10 μL supernatant was used to measure the level of Eotaxin-3 (CCL26) using Human Eotaxin-3 MSD kit from Mesocsale (Cat #K251UEK-4). The assay was performed according to the manufacture instructions.
The data from the human whole blood eotaxin-3 assay is shown in FIG. 2 for Examples 3u208, 3u246, 3u118, 3u119, 3u120, and 3u74 (where the effect in % is plotted against the test concentration in M on a log scale).

**Q.** With `CNc1cc(=O)n(-c2ccnc3c2cc([C@H](C)N2CC=C(c4c(C)cc(C(=O)N5CCC(CN6CCC(c7ccc8c(c7)C7(CC7)C(=O)N8C7CCC(=O)NC7=O)CC6)CC5)cc4F)CC2)n3C)cc1F` (stereo partly drawn) [Example 3u282, 3-(5′-(1-((1-(3-fluoro-4-(1-((S)-1-(4-(5-fluoro-4-(methylamino)-2-oxopyridin-1 (2H)-yl)-1-methyl-1H-pyrrolo[2,3-b]pyridin-2-yl)ethyl)-1,2,3,6-tetrahydropyridin-4-yl)-5-methylbenzoyl)-piperidin-4-yl)methyl)piperidin-4-yl)-2′-oxospiro[cyclopropane-1,3′-indolin]-1′-yl)piperidine-2,6-dione] as the molecule, how does the EC50 read?
**A.** The EC50 was 6.9 nM.

**Q.** For `C[C@@H](c1cc2c(-n3cc(F)c4c(c3=O)CCN4)ccnc2n1C)N1CC=C(c2c(F)cc(C(=O)N3CCC(CN4CCN(c5cc6c(cc5F)n(C5CCC(=O)NC5=O)c(=O)n6C)CC4)CC3)cc2F)CC1` (stereo partly drawn) [Example 3u269, 3-(5-(4-((1-(3,5-difluoro-4-(1-((S)-1-(4-(7-fluoro-4-oxo-1,2,3,4-tetrahydro-5H-pyrrolo[3,2-c]pyridin-5-yl)-1-methyl-1H-pyrrolo[2,3-b]pyridin-2-yl)ethyl)-1,2,3,6-tetrahydropyridin-4-yl)benzoyl)piperidin-4-yl)methyl)piperazin-1-yl)-6-fluoro-3-methyl-2-oxo-2,3-dihydro-1H-benzo[d]-imidazol-1-yl)piperidine-2,6-dione], which EC50 is on record?
**A.** Its EC50 is 96.3 nM.

**Q.** Which EC50 does the source give for `CNc1ccn(-c2ccnc3c2cc([C@H](C)N2CC=C(c4c(C)cc(C(=O)N5CCC(CN6CCN(Cc7ccc8c(c7)n(C7CC7)c(=O)n8C7CCC(=O)NC7=O)C[C@@H]6C)CC5)cc4F)CC2)n3C)c(=O)c1OC` (stereo partly drawn) [Example 3u135, 3-(3-cyclopropyl-5-(((S)-4-((1-(3-fluoro-4-(1-((S)-1-(4-(3-methoxy-4-(methylamino)-2-oxopyridin-1 (2H)-yl)-1-methyl-1H-pyrrolo[2,3-b]pyridin-2-yl)ethyl)-1,2,3,6-tetrahydropyridin-4-yl)-5-methylbenzoyl)piperidin-4-yl)methyl)-3-methylpiperazin-1-yl)methyl)-2-oxo-2,3-dihydro-1H-benzo[d]imidazol-1-yl)piperidine-2,6-dione] here?
**A.** The EC50 was 185 nM.

**Q.** How did the EC50 turn out when `CNc1ccn(-c2ccnc3c2cc(CN2CCC(c4c(F)cc(C(=O)N5CCC(CN6CCN(c7cc8c(cc7F)n(C7CCC(=O)NC7=O)c(=O)n8C)CC6)CC5)cc4F)CC2)n3C)c(=O)c1` (stereo not drawn) [Example 3u270, 3-(5-(4-((1-(3,5-difluoro-4-(1-((1-methyl-4-(4-(methylamino)-2-oxopyridin-1 (2H)-yl)-1H-pyrrolo[2,3-b]pyridin-2-yl)methyl)piperidin-4-yl)benzoyl)piperidin-4-yl)methyl)piperazin-1-yl)-6-fluoro-3-methyl-2-oxo-2,3-dihydro-1H-benzo[d]imidazol-1-yl)piperidine-2,6-dione] was run?
**A.** The EC50 was 26.8 nM.

**Q.** `Cc1cc(C(=O)N2CCC(CN3CCN(c4cc5c(cc4F)n(C4CCC(=O)NC4=O)c(=O)n5C)CC3)CC2)cc(F)c1C1=CCN([C@@H](C)c2cc3c(-n4cc(F)c5c(c4=O)CCN5)ccnc3n2C)CC1` (stereo partly drawn) [Example 3u253, 3-(6-fluoro-5-(4-((1-(3-fluoro-4-(1-((S)-1-(4-(7-fluoro-4-oxo-1,2,3,4-tetrahydro-5H-pyrrolo[3,2-c]pyridin-5-yl)-1-methyl-1H-pyrrolo[2,3-b]pyridin-2-yl)ethyl)-1,2,3,6-tetrahydropyridin-4-yl)-5-methylbenzoyl)piperidin-4-yl)methyl)piperazin-1-yl)-3-methyl-2-oxo-2,3-dihydro-1H-benzo[d]imidazol-1-yl)piperidine-2,6-dione] was tested. Which EC50 did it give?
**A.** Its EC50 is 8.1 nM.

**Q.** How did the EC50 turn out when `CNc1cc(=O)n(-c2ccnc3c2cc([C@H](C)N2CC=C(c4c(C)cc(C(=O)N5CCC(CN6CCN(c7ccc8c(c7)C7(CC7)C(=O)N8[C@H]7CCC(=O)NC7=O)C[C@@H]6C)CC5)cc4F)CC2)n3C)cc1F` (single isomer, unassigned) [Example 3u65] was run?
**A.** The EC50 was 93.5 nM.

**Q.** For `C[C@H]1CN(Cc2ccc3c(c2)n(C)c(=O)n3C2CCC(=O)NC2=O)CCN1CC1CCN(C(=O)c2cc(F)c(C3=CCN([C@@H](C)c4cc5c(-n6cc(F)c7c(c6=O)CCN7)ccnc5n4C)CC3)c(F)c2)CC1` (stereo partly drawn) [Example 3u8, 3-(5-(((S)-4-((1-(3,5-difluoro-4-(1-((S)-1-(4-(7-fluoro-4-oxo-1,2,3,4-tetrahydro-5H-pyrrolo[3,2-c]pyridin-5-yl)-1-methyl-1H-pyrrolo[2,3-b]pyridin-2-yl)ethyl)-1,2,3,6-tetrahydropyridin-4-yl)benzoyl)piperidin-4-yl)methyl)-3-methylpiperazin-1-yl)methyl)-3-methyl-2-oxo-2,3-dihydro-1H-benzo[d]imidazol-1-yl)piperidine-2,6-dione], which EC50 is on record?
**A.** The EC50 was 5.9 nM.

**Q.** With `CNc1nc(=O)n(-c2ccnc3c2cc([C@H](C)N2CC=C(c4c(C)cc(C(=O)N5CCC(CN6CCN(c7cc8c(cc7F)n(C7CCC(=O)NC7=O)c(=O)n8C)CC6)CC5)cc4F)CC2)n3C)cc1F` (stereo partly drawn) [Example 3u268, 3-(6-fluoro-5-(4-((1-(3-fluoro-4-(1-((S)-1-(4-(5-fluoro-4-(methylamino)-2-oxopyrimidin-1 (2H)-yl)-1-methyl-1H-pyrrolo[2,3-b]pyridin-2-yl)ethyl)-1,2,3,6-tetrahydropyridin-4-yl)-5-methylbenzoyl)piperidin-4-yl)methyl)piperazin-1-yl)-3-methyl-2-oxo-2,3-dihydro-1H-benzo[d]-imidazol-1-yl)piperidine-2,6-dione] as the molecule, how does the EC50 read?
**A.** The EC50 was 5.6 nM.

**Q.** Which EC50 does the source give for `CNc1cc(=O)n(-c2ccnc3c2cc([C@H](C)N2CC=C(c4c(C)cc(C(=O)N5CCC(CN6CCN(c7cccc8c7n(C)c(=O)n8C7CCC(=O)NC7=O)CC6)CC5)cc4F)CC2)n3C)cc1F` (stereo partly drawn) [Example 3u271, 3-(4-(4-((1-(3-fluoro-4-(1-((S)-1-(4-(5-fluoro-4-(methylamino)-2-oxopyridin-1 (2H)-yl)-1-methyl-1H-pyrrolo[2,3-b]pyridin-2-yl)ethyl)-1,2,3,6-tetrahydropyridin-4-yl)-5-methylbenzoyl)-piperidin-4-yl)methyl)piperazin-1-yl)-3-methyl-2-oxo-2,3-dihydro-1H-benzo[d]imidazol-1-yl)-piperidine-2,6-dione] here?
**A.** The EC50 was 3.3 nM.
